From patent US7276519B2, “Thieno[3,2-b]pyridine-6-carbonitriles and thieno[2,3-b]pyridine-5-carbonitriles as protein kinase inhibitors” (Wyeth, priority 2002, dated 2007)
Where “and” joins values, the source holds several entries; their conditions need not be identical. Equal values may be shown once.

Key:
[1] = tested on: WM266-4 cells; assay: Cell based screen for inhibitors of Raf and/or Mek kinase, WM266-4; details: Table 4, four days incubation, SRB
Method: (§1) Cell Based Screen for Inhibitors of Raf and/or Mek Kinase.
(§2) Cell Lines: Human tumor cell lines LoVo which are known to be growth inhibited by low nM concentrations of a reference standard inhibitor of Ras and human adenocarcinoma cell line CaCo-2, which is known to be growth resistant to the same reference compound.
(§3) Cell Media: RPMI 1640 with 10% Fetal Bovine Serum supplemented with L-glutamine and Pennicilin/Streptomycin. • Compounds: Supplied usually as a 10 mM stock in 100% DMSO. • Normal Saline: 150 mM NaCl • Trichloroacetic Acid (TCA): 50% (w/v) in water • Sulforhodamine B (SRB): 0.4% (w/v) in 1% Acetic Acid • Tris Base: 10 mM in water Methods
(§4) Cells are plated at 2000 cells per well for cell line LoVo, 1,750 cells for cell line BXPC3, 1,000 cells for cell line WM266–4 and 1500 cells for cell line CaCo-2 in 96 well plates. Cells are plated in media (200 μl) and allowed to adhere overnight at 37° C. At 24 hours post plating, compounds are added directly at a volume of 0.5 μl. For the qualitative screen (compounds screened at 25 μM) compound is added directly to cells. For the quantitative screen, compound is first diluted in DMSO to generate concentrations of compound or reference standard of: 1, 5, 10 and 25 μM. It is advisable to make the dilutions in an identical 96 well plate so that compounds can be added using a multichannel micropipettor set at 0.5 μl. The cells are then incubated for four days after which the media is removed using a 12 well manifold by first tipping the plate forward at a 45 degree angle and then inserting the manifold in an upright orientation to prevent the tips of the manifold from disturbing cells at the bottom of the plate. 200 μl of normal saline is then added to each well using an 8 well multichannel pipettor, followed by the careful addition of 50 μl of 50% TCA. The plates are then incubated for 2 hours at 4° C., after which the supernatant is removed using the same technique as above and the plated washed twice with 200 μl water. The plates are then air dried and 50 μl of SRB stock solution is carefully added so that the entire bottom of each well is covered. This again can be used using an 8 well multichannel pipettor. The SRB is incubated with fixed cells for 15 minutes at room temperature after which the SRB is removed with the manifold as described above and the plates washed twice with 350 μl of 1% acetic acid per well each time. The plates are then air dried after which the bound SRB is released from protein by the addition of 200 μl of Tris base. Resolubilizing the SRB is aided by placing the plates on a rotator for 15–30 minutes. The absorbance of each well is determined at 550 or 562 nm using a microtiter plate reader.
(§5) Each compound or dilution thereof is performed in triplicate. Outliers are identified by visual inspection of the data. Each plate should have a “0” control (vehicle only).
(§6) Quantitative Assay: A standard curve is constructed by plotting the concentration of compound against the average absorbance calculated at that concentration. A curve is plotted and the concentration at which the curve passes through the 50% the absorbance mark seen in the “0” control well is the IC50 calculated for that compound. Multiple entries for a given compound indicate that it was tested multiple times.

[2] = biological target: T1, Raf-1 (c-Raf) / GST-MEK1 (Raf and/or Mek kinase); assay: Raf/Mek kinase cascade assay; assay type: biochemical, human; details: Table 4; read-out: Raf/MEK enzyme IC50
T1 construct: Sf9 insect cell lysate containing full length 6his-tagged recombinant human c-Raf; fused on or other part: 6His tag on c-Raf; GST on MEK1
Method: Raf/Mek Kinase Cascade Assay
(Specific Activity: ˜200 U/ml). Human Non-active Mek-1-GST and human GST-MAP kinase recombinant proteins produced in E. coli).
Stock Solutions Raf/Mek Cascade Assay:
• 1. Assay Dilution Buffer (ADB): 20 mM MOPS, pH 7.2, 25 mM β-glycerol phosphate, 5 mM EGTA, 1 mM sodium orthovanadate, 1 mM dithiothreitol. • 2. Magnesium/ATP Cocktail: 500 μM cold ATP and 75 mM magnesium chloride in ADB. • 3. Active Kinase: Human Active c-Raf: Use at 0.4 U per assay point. • 4. Non-active GST-MEK1: Use at 0.1 μg per assay point. • 5. Non-active GST-p42 MAP Kinase: Use at 1.0 μg per assay point. Stock Solutions ELISA: • 1. TBST—Tris (50 mM, pH 7.5), NaCl (150 mM), Tween-20 (0.05%) • 2. Superblock (Pierce) • 3. Anti-GST Ab (Pharmacia) • 4. Anti-Phospho MAPK (Sigma) • 5. Anti-Mouse Ab/Europium conjugate (Wallac) Assay Procedure: First Stage: c-Raf Dependent Activation of GST-MEK and GST-MAPK • 1. Add […] of ADB per assay (i.e. per well of a 96 well plate) • 2. Add […] of 0.5 mM cold ATP and 75 mM magnesium chloride in ADB. • 3. Add 2 ml of c-Raf (0.4 U/assay), in conjunction with 1.6 ml non-active MEK1 ([…]). • 4. Add 4 ml of non-active GST-p42 MAP Kinase ([…]). • 5. Incubate for 60 minutes at 30° C. in a shaking incubator. • 6. Transfer this mixture to an anti-GST Ab coated 96 well plate (Nunc Immunosorb plates coated o/n with a-GST, then blocked with Pierce Superblock). • 7. Incubate for 60 minutes at 30° C. in a shaking incubator • 8. Wash 3× with TBST, add Anti-Phospho MAPK (Sigma) (1:3000) • 9. Incubate for 60 minutes at 30° C. in a shaking incubator • 10. Wash 3× with TBST, add Anti-Mouse Ab/Europium conjugate (Wallac) (1:500) • 11. Incubate for 60 minutes at 30° C. in a shaking incubator • 12. Wash 3× with TBST, Read plates in Wallac Victor model Plate Reader. • 13. Collect data analyze in Excel for single point and IC50 determinations.
Single point assay—% inhibition at 10 mg/ml (% Inhibition=1—cpd.treated sample/untreated control). IC50 determinations—done on compounds from single point assays with >80% inhibition. Typically, the Raf/Mek assay is run at compound concentrations from 10 μM to 1 nM in half log dilutions. (% inhibition is determined for each compound concentration). Multiple entries for a given compound indicate that it was tested multiple times. The results obtained measure Raf and/or Mek kinase inhibition, and for representative compounds of this invention are listed in Table 4.

[3] = tested on: LoVo cells; assay: Cell based screen for inhibitors of Raf and/or Mek kinase, LoVo; design: species or system human; details: Table 4, four days incubation, SRB
Method: as §1, §2, §3, §4, §5, §6

[4] = tested on: BXPC3 cells; assay: Cell based screen for inhibitors of Raf and/or Mek kinase, BXPC3; details: Homo sapiens, BXPC-3, 96 h; Table 4; four days incubation, SRB
Method: as §1, §2, §3, §4, §5, §6

melting point	IC50 [2]	IC50 ([3]; Homo sapiens, LoVo, 96 h)	IC50 [4]	IC50 [3]	Compound	IC50 ([1]; Homo sapiens, WM 266-4, 96 h)	IC50 [1]
221 to 224 °C	0.0045 µM	0.039 µM	0.041 µM	–	CN1CCN(Cc2ccc(-c3cc4ncc(C#N)c(Nc5ccc(Sc6nccn6C)c(Cl)c5)c4s3)cc2)CC1 [Example 99, 7-({3-chloro-4-[(1-methyl-1H-imidazol-2-yl)thio]phenyl}amino)-2-{4-[(4-methylpiperazin-1-yl)methyl]phenyl}thieno[3,2-b]pyridine-6-carbonitrile]	> 1 µM	–
200 to 203 °C	0.0056 µM	0.033 µM	0.038 µM	–	CCN(CC)Cc1ccc(-c2cc3ncc(C#N)c(Nc4ccc(Sc5nccn5C)c(Cl)c4)c3s2)cc1 [Example 98, 7-({3-chloro-4-[(1-methyl-1H-imidazol-2-yl)thio]phenyl}amino)-2-{4-[(diethylamino)methyl]phenyl}thieno[3,2-b]pyridine-6-carbonitrile]	0.04 µM	–
195 to 200 °C	0.221 µM and 0.332 µM	0.094 µM	0.35 µM	0.16 µM	Cn1ccnc1Sc1ccc(Nc2c(C#N)cnc3cc(C#CCCN4CCOCC4)sc23)cc1Cl [Example 86]	0.35 µM	–
150 to 152 °C	0.041 µM	0.036 µM	> 1 µM	0.038 µM	Cn1ccnc1Sc1ccc(Nc2c(C#N)cnc3cc(-c4ccc(CN5CCOCC5)cc4)sc23)cc1Cl [Example 83, 7-({3-chloro-4-[(1-methyl-1H-imidazol-2-yl)thio]phenyl}amino)-2-[4-(morpholin-4-ylmethyl)phenyl]thieno[3,2-b]pyridine-6-carbonitrile]	> 1 µM	–
204 to 207 °C	0.475 µM	0.064 µM	0.092 µM	–	CN(C)CC#Cc1cc2ncc(C#N)c(Nc3ccc(Sc4nccn4C)c(Cl)c3)c2s1 [Example 91, 7-({3-chloro-4-[(1-methyl-1H-imidazol-2-yl)thio]phenyl}amino)-2-[3-(dimethylamino)prop-1-ynyl]thieno[3,2-b]pyridine-6-carbonitrile]	0.095 µM	0.085 µM
